Data on 18 compounds can be found in US8053603B2, “Tetralone-based monoamine reuptake inhibitors” (Sunovion Pharmaceuticals Inc., priority 2006, dated 2011).

What is called IC50 is the concentration at which inhibition is half-maximal.

Experiment [1] concerns the target T1, recombinant human norepinephrine transporter (Homo sapiens, UniProt P23975).
T1 construct: expressed in transfected cells; host or cells: HEK293 or MDCK
Kind of experiment: Norepinephrine functional uptake assay for human reuptake transporter. The following applies: [3H]norepinephrine uptake, HEK293 or MDCK cells expressing human norepinephrine transporter. The class given is cell-based. The protocol: Norepinephrine Functional Uptake Assay for Human Reuptake Transporter
The cells were plated before the assay. Test compound and/or vehicle was preincubated with cells in modified HEPES buffer pH 7.1 or pH 7.4 for 20 minutes at 18 to 25° C. . […] After the cells were washed to remove [^3H]norepinephrine not internalized, the cells were lysed, and the amount of tritium in the cell lysate was measured using a liquid scintillation counter to determine [^3H]norepinephrine uptake. Non-specific binding of tritium was measured in a control reaction containing 10 μM imipramine (or 10 μM nisoxetine), and was subtracted from the counts for assays to correct for non-specific binding of tritium. Reduction of [^3H]norepinephrine uptake by 50 percent or more (≧50%) relative to an uninhibited control reaction indicates significant inhibitory activity.

Experiment [2] addresses T2, recombinant human serotonin transporter (Homo sapiens, UniProt P31645).
T2 construct: expressed in transfected cells; host or cells: HEK-293
Kind of experiment: Serotonin functional uptake assay for human reuptake transporter. Type of experiment: cell-based. The note with it: [3H]serotonin uptake, HEK-293 cells expressing human serotonin transporter; read-out: Human IC50 (nM) SERT. The protocol:
Serotonin Functional Uptake Assay for Human Reuptake Transporter
HEK-293 cells expressing human serotonin transporter were plated before the assay. […] Cells with internalized [^3H]serotonin were washed and the amount of tritium taken into cells is counted using a liquid scintillation counter to determine [^3H]serotonin uptake.

Experiment [3] concerns the target T3, recombinant human dopamine transporter (Homo sapiens, UniProt Q01959).
T3 construct: expressed in transfected cells; host or cells: CHO-K1 or HEK293
Kind of experiment: Dopamine functional uptake assay for human reuptake transporter. The note with it: [3H]dopamine uptake, CHO-K1 or HEK293 cells expressing human dopamine transporter; read-out: Human IC50 (nM) DAT. Type of experiment: cell-based. The protocol:
Dopamine Functional Uptake Assay for Human Reuptake Transporter
Either CHO-K1 or HEK293 cells expressing human recombinant dopamine transporter were plated before the assay. Test compound and/or vehicle was preincubated with cells in modified HEPES buffer pH 7.1 or pH 7.4 for 20 minutes at 18 to 25° C. and 50 nM [^3H]dopamine was then added for an additional timed incubation period (10 to 30 minutes). After washing the cells to remove [^3H]dopamine not internalized, the cells were lysed, and the amount of tritium in the lysate was measured using a liquid scintillation counter to determine [^3H]dopamine uptake. Non-specific binding of tritium was measured in a control reaction containing 10 μM nomifensine, and was subtracted from the counts for assays to correct for non-specific binding of tritium. Reduction of [^3H]dopamine uptake by 50 percent or more (≧50%) relative to an uninhibited control reaction indicates significant inhibitory activity.

The conditions of experiment [4]: in vivo; cited from earlier work.
The target in another experiment is serotonin uptake sites (Homo sapiens, UniProt P31645). The following applies: versus racemic 1-(3,4-dichlorophenyl)-3-azabicyclo[3.1.0]hexane; cited from earlier work.

Read-outs that look alike come from different tables or passages of the source.

T1 sequence (P23975 whole entry): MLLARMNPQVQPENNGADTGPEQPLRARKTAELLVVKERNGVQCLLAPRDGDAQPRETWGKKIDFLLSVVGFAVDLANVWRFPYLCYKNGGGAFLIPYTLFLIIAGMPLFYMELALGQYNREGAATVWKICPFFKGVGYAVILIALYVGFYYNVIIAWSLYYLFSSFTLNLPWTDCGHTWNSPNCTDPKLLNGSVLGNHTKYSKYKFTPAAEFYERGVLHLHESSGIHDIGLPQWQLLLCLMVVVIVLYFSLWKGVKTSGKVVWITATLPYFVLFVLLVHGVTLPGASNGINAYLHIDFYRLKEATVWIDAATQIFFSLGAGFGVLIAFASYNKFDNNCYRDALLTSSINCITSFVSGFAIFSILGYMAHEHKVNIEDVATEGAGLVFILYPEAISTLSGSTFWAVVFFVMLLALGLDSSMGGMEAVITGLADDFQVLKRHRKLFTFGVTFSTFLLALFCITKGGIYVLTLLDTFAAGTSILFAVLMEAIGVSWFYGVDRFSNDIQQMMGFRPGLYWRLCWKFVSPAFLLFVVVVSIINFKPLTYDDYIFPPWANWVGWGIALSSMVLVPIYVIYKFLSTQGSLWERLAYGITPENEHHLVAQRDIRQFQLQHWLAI
T2 sequence (P31645 whole entry): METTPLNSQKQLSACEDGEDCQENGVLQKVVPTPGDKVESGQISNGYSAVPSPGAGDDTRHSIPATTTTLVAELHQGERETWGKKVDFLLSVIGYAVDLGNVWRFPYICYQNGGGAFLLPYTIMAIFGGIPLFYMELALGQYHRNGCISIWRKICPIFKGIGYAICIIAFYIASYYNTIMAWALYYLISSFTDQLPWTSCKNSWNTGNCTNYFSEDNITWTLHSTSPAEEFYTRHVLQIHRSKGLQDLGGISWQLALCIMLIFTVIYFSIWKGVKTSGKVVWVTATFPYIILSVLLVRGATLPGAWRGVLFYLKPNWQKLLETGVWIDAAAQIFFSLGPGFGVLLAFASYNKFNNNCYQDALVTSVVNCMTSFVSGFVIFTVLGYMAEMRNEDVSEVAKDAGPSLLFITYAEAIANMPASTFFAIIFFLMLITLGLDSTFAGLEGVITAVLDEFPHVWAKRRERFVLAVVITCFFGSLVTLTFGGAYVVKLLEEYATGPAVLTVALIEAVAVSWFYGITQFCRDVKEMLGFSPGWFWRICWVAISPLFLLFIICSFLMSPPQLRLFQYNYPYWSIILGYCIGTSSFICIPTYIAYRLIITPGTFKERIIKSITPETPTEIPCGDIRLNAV
T3 sequence (Q01959 whole entry): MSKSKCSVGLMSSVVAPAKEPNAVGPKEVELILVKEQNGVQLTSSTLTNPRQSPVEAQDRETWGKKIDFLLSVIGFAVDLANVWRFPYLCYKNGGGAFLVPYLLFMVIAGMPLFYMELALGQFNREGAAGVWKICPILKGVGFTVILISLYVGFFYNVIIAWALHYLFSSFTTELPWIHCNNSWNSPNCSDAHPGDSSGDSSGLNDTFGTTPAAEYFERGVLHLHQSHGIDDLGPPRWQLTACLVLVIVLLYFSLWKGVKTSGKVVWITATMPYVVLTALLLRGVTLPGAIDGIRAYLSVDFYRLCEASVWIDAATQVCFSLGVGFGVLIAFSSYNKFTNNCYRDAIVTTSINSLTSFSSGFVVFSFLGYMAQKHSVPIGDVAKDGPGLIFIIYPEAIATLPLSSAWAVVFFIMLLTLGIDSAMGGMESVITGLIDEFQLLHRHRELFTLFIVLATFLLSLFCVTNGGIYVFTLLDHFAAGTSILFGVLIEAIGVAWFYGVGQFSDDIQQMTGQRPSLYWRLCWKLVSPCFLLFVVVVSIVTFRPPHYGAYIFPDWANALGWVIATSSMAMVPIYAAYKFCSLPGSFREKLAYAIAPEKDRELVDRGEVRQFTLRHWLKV
Sequence of serotonin uptake sites (P31645 whole entry): as the sequence (P31645 whole entry) above

Take `CNC1c2ccccc2CCC1c1ccc(Cl)c(Cl)c1` (single isomer, unassigned) [Compound 40a, 2-(3,4-dichlorophenyl)-N-methyl-1,2,3,4-tetrahydronaphthalen-l-amine]: the IC50 in experiment [1] (read-out: Human IC50 (nM) NET) is more than 10000 nM; in experiment [2] it was 2470 nM; in experiment [3] it was 3410 nM.
Take `CNC1c2ccccc2CCC1c1ccc(Cl)c(Cl)c1` (single isomer, unassigned) [Compound 40b, 2-(3,4-dichlorophenyl)-N-methyl-1,2,3,4-tetrahydronaphthalen-l-amine]: the half-maximal inhibitory concentration (IC50) was more than 10000 nM in experiment [1] (read-out: Human IC50 (nM) NET), 7720 nM in experiment [2] and 1790 nM in experiment [3].
For `CN(C)[C@@H]1c2ccccc2CC[C@@H]1c1ccc(Cl)c(Cl)c1` (single isomer, unassigned) [Compound 41a, cis-2-(3,4-dichlorophenyl)-N,N-dimethyl-1,2,3,4-tetrahydronaphthalen-1-amine], the results for the IC50 in experiment [1] (read-out: Human IC50 (nM) NET), in experiment [2] and in experiment [3] were more than 10000 nM, 3170 nM and 2280 nM, respectively.
In the same order, the values of `CN(C)[C@@H]1c2ccccc2CC[C@@H]1c1ccc(Cl)c(Cl)c1` (single isomer, unassigned) [Compound 41b, cis-2-(3,4-dichlorophenyl)-N,N-dimethyl-1,2,3,4-tetrahydronaphthalen-1-amine] are more than 10000 nM, 9740 nM and 1120 nM.
On to `CC(N)C1=Cc2ccccc2[C@H](c2ccc(Cl)c(Cl)c2)C1` (single isomer, unassigned) [Compound 45], for which the IC50 in experiment [1] (Human IC50 (nM) NET) stood at 53 nM; in experiment [2], 876 nM; in experiment [3], 174 nM.
In the same order, the values of `CC(N)C1=Cc2ccccc2[C@H](c2ccc(Cl)c(Cl)c2)C1` (single isomer, unassigned) [Compound 46] are 580 nM, 50 nM and 1660 nM.
With `CNC(C)C1=Cc2ccccc2[C@H](c2ccc(Cl)c(Cl)c2)C1` (single isomer, unassigned) [Compound 47], the results for the IC50 in experiment [1] (read-out: Human IC50 (nM) NET), in experiment [2] and in experiment [3] were 1180 nM, 44 nM and 1140 nM, respectively.
For `CC(N)[C@@H]1Cc2ccccc2[C@H](c2ccc(Cl)c(Cl)c2)C1` (single isomer, unassigned) [Compound 52], the half-inhibitory concentration (IC50) is 122 nM in experiment [1] (Human IC50 (nM) NET), 8 nM in experiment [2] and 622 nM in experiment [3].
Turning to `CC([C@@H]1Cc2ccccc2[C@H](c2ccc(Cl)c(Cl)c2)C1)N(C)C` (single isomer, unassigned) [Compound 53], the half-maximal inhibitory concentration (IC50) in experiment [1] (read-out: Human IC50 (nM) NET) came to 399 nM; in experiment [2], 58 nM; in experiment [3] it was 495 nM.
Take `CC([C@@H]1Cc2ccccc2[C@H](c2ccc(Cl)c(Cl)c2)C1)N(C)C` (single isomer, unassigned) [Compound 54]: the IC50 in experiment [1] (read-out: Human IC50 (nM) NET) stood at 1700 nM; in experiment [2] it was 815 nM; in experiment [3], 1900 nM.
In the same order, the values of `CC1C[C@@H](c2ccc(Cl)c(Cl)c2)c2ccccc2/C1=N\O` (single isomer, unassigned) [Compound 57] are 3890 nM, 3180 nM and 997 nM.
In the same order, the values of `CC1C[C@@H](c2ccc(Cl)c(Cl)c2)c2ccccc2/C1=N\O` (single isomer, unassigned) [Compound 58] are 2840 nM, 1700 nM and 436 nM.
As for `Clc1ccc([C@@]23CNC[C@@H]2C3)cc1Cl` (single isomer, unassigned) [DOV 21,947, (+)-1-(3,4-dichlorophenyl)-3-azabicyclo[3.1.0]hexane], the “immobility in the tail suspension test” value in experiment [4] is “dose-dependent reduction in immobility”. Moreover, on serotonin uptake sites, the “affinity for the serotonin uptake sites compared with the racemic compound” value is “significantly greater affinity”.
For `CN[C@H]1Cc2ccc(OC)cc2[C@@H](c2ccc(Cl)c(Cl)c2)C1` (stereo in doubt) [Compound 32a.3, 4-(3,4-dichlorophenyl)-6-methoxy-N-methyl-1,2,3,4-tetrahydronaphthalen-2-amine], the IC50 in experiment [1] (read-out: Human IC50 (nM) NET) is 1050 nM; in experiment [2] it was 4380 nM; in experiment [3], 1500 nM.
`CN[C@H]1Cc2cc(OC)ccc2[C@@H](c2ccc(Cl)c(Cl)c2)C1` (stereo in doubt) [Compound 32c.3, 4-(3,4-dichlorophenyl)-7-methoxy-N-methyl-1,2,3,4-tetrahydronaphthalen-2-amine]: the half-maximal inhibitory concentration (IC50) is 198 nM in experiment [1] (read-out: Human IC50 (nM) NET), 105 nM in experiment [2] and 92 nM in experiment [3].
The corresponding values for `CC(C1=Cc2ccccc2[C@H](c2ccc(Cl)c(Cl)c2)C1)N(C)C` (stereo partly drawn) [Compound 48, 1-((S)-4-(3,4-dichlorophenyl)-3,4-dihydronaphthalen-2-yl)-N,N-dimethylethanamine] are 2720 nM, 134 nM and 2440 nM.
For the compound `CC(N)[C@@H]1Cc2ccccc2[C@H](c2ccc(Cl)c(Cl)c2)C1` (stereo partly drawn) [Compound 51, 1-((2S,4S)-4-(3,4-dichlorophenyl)-1,2,3,4-tetrahydronaphthalen-2-yl)ethanamine], the IC50 stood at 12 nM in experiment [1] (Human IC50 (nM) NET), 2 nM in experiment [2] and 30 nM in experiment [3].
With `CC1(C)C[C@@H](c2ccc(Cl)c(Cl)c2)c2ccccc2C1N` (stereo partly drawn) [Compound 59, (4S)-4-(3,4-dichlorophenyl)-2,2-dimethyl-1,2,3,4-tetrahydronaphthalen-1-amine], the figures for the IC50 in experiment [1] (read-out: Human IC50 (nM) NET), in experiment [2] and in experiment [3] were more than 10000 nM, 5500 nM and 1080 nM, respectively.
